# Laboratory results: ChEMBL document CHEMBL1201862, “PubChem BioAssay data set” (2004)
#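 Five compound concentrations were applied to cells in 96-well plates for 48 hours; endpoints were derived by simple linear interpolation of the resulting dose-response curve. GI50: concentration for 50% inhibition of growth.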 The source made the active and inactive calls. Rule as the data show it: active = GI50 up to about 1.1 µM and inactive = higher.
# Experiments:
# Assay in all cases: NCI tumour cell line growth inhibition, 48 h
# SF-295 = test system: SF-295
# RPMI-8226 = test system: RPMI-8226
# NCI-H23 = test system: NCI-H23
# Malme-3M = test system: Malme-3M
# T47D = test system: T47D
# A498 = test system: A498
# EKVX = test system: EKVX
# DU-145 = test system: DU-145
# SF-268 = test system: SF-268
# UACC-62 = test system: UACC-62
# TK-10 = test system: TK-10
# UO-31 = test system: UO-31
# KM12 = test system: KM12
# HCT-15 = test system: HCT-15
# SR = test system: SR
# NCI-H522 = test system: NCI-H522
# 786-0 = test system: 786-0
# SW-620 = test system: SW-620
# SN12C = test system: SN12C
# MOLT-4 = test system: MOLT-4
Structure (SMILES),GI50 (SF-295),GI50 (RPMI-8226),GI50 (NCI-H23),GI50 (Malme-3M),GI50 (T47D),GI50 (A498),GI50 (EKVX),GI50 (DU-145),GI50 (SF-268),GI50 (UACC-62),GI50 (TK-10),GI50 (UO-31),GI50 (KM12),GI50 (HCT-15) [µM],GI50 (SR),GI50 (NCI-H522),GI50 (786-0),GI50 (SW-620),GI50 (SN12C),GI50 (MOLT-4)
CCC1=C(c2ccc(OC)cc2)CC[C@]2(CCNC2=O)[C@@H]1C,30 µM (inactive),16.3 µM (inactive),37.4 µM (inactive),25.8 µM (inactive),32.4 µM (inactive),31.3 µM (inactive),28.1 µM (inactive),33.3 µM (inactive),33.1 µM (inactive),24.4 µM (inactive),35 µM (inactive),21.4 µM (inactive),32 µM (inactive),28.7,24.2 µM (inactive),18.3 µM (inactive),42.5 µM (inactive),44.2 µM (inactive),37.8 µM (inactive),15.8 µM (inactive)
COc1ccc(C2C(C=O)C(N3CCN(C)CC3)=Nc3nc4ccccc4n32)cc1 (stereo not given),19.9 µM (inactive),2.35 µM (inactive),20.5 µM (inactive),10.8 µM (inactive),11.7 µM (inactive),11 µM (inactive),27.7 µM (inactive),17.8 µM (inactive),16.6 µM (inactive),14.1 µM (inactive),14.3 µM (inactive),14.4 µM (inactive),16.3 µM (inactive),17.8,0.0382 µM (active),13 µM (inactive),20 µM (inactive),17.3 µM (inactive),17.9 µM (inactive),< 0.01 µM (active)
C[C@@H]1CCC([C@@H](C)[C@H]2CC[C@H]3[C@@H]4CC[C@H]5C[C@@H](O)CC[C@]5(C)[C@H]4CC[C@]23C)=NC1,4.71 µM (inactive),2.77 µM (inactive),17.7 µM (inactive),18.1 µM (inactive),12.7 µM (inactive),> 70.1 µM (inactive),12.4 µM (inactive),> 47 µM (inactive),12.6 µM (inactive),15.9 µM (inactive),34.7 µM (inactive),10.4 µM (inactive),5.06 µM (inactive),2.76,12 µM (inactive),3.96 µM (inactive),8.02 µM (inactive),40.8 µM (inactive),8.59 µM (inactive),13 µM (inactive)
COc1ccc2c(c1)CC[C@@H]1[C@@H]2CC[C@]2(C)/C(=N/OCCN3CCCCC3)CC[C@@H]12,3.52 µM (inactive),2.62 µM (inactive),11.4 µM (inactive),2.25 µM (inactive),5.46 µM (inactive),6.38 µM (inactive),8.32 µM (inactive),3.85 µM (inactive),9.2 µM (inactive),2.06 µM (inactive),4.74 µM (inactive),3.19 µM (inactive),3.61 µM (inactive),2.03,2.44 µM (inactive),5.27 µM (inactive),1.85 µM (inactive),5.11 µM (inactive),4.34 µM (inactive),3.06 µM (inactive)
CC(C)[Si]1(C(C)C)OCC2OC(N3C(=O)NC(=O)C[C@@H]3C(O)c3ccccc3)CC2O[Si](C(C)C)(C(C)C)O1 (stereo not given in full),4.51 µM (inactive),4.31 µM (inactive),7.98 µM (inactive),5.41 µM (inactive),2.69 µM (inactive),7.21 µM (inactive),8.2 µM (inactive),13.2 µM (inactive),4.14 µM (inactive),8.91 µM (inactive),9.89 µM (inactive),10.8 µM (inactive),2.4 µM (inactive),5.42,1.68 µM (inactive),3.18 µM (inactive),5.93 µM (inactive),3.4 µM (inactive),3.86 µM (inactive),2.31 µM (inactive)
COC(=O)N/N=C(/c1nc2ccc([N+](=O)[O-])cc2nc1O)C(O)c1ccc(OC)c(OC)c1 (stereo not given),98.6 µM (inactive),41.9 µM (inactive),> 76.7 µM (inactive),> 100 µM (inactive),80 µM (inactive),> 67.8 µM (inactive),> 100 µM (inactive),> 100 µM (inactive),> 81.1 µM (inactive),> 100 µM (inactive),> 100 µM (inactive),> 100 µM (inactive),49.9 µM (inactive),46.8,19.5 µM (inactive),40.5 µM (inactive),> 69 µM (inactive),> 100 µM (inactive),> 100 µM (inactive),33 µM (inactive)
CC(Oc1ccccc1)C(=O)NNC(=O)OC(C)(C)C (stereo not given),> 100 µM (inactive),> 100 µM (inactive),> 100 µM (inactive),> 100 µM (inactive),> 100 µM (inactive),> 100 µM (inactive),> 100 µM (inactive),> 100 µM (inactive),> 100 µM (inactive),> 100 µM (inactive),> 100 µM (inactive),> 100 µM (inactive),> 100 µM (inactive),> 100,> 100 µM (inactive),> 100 µM (inactive),> 100 µM (inactive),> 100 µM (inactive),> 100 µM (inactive),> 100 µM (inactive)
COc1ccc(N/N=C/C2=CC(C)(C)C(C#N)(C#N)C(O)=C2C#N)cc1,36.6 µM (inactive),35.6 µM (inactive),35.9 µM (inactive),29.4 µM (inactive),35.6 µM (inactive),37.9 µM (inactive),66.5 µM (inactive),77.8 µM (inactive),41 µM (inactive),62.2 µM (inactive),> 100 µM (inactive),20.5 µM (inactive),32.5 µM (inactive),14.1,11.5 µM (inactive),37.7 µM (inactive),38.5 µM (inactive),40.9 µM (inactive),47.4 µM (inactive),28.4 µM (inactive)
CN(C)CCNc1ccc(CO)c2sc3ccc(O)cc3c(=O)c12,1 µM (active),1.69 µM (inactive),0.869 µM (active),2.66 µM (inactive),1.91 µM (inactive),6.89 µM (inactive),5.13 µM (inactive),0.467 µM (active),1.55 µM (inactive),1.34 µM (inactive),8.77 µM (inactive),0.35 µM (active),2.34 µM (inactive),2.31,< 0.0157 µM (active),1.32 µM (inactive),1.13 µM (inactive),1.17 µM (inactive),1.23 µM (inactive),0.0262 µM (active)
CN(C)CCNc1ccc2c(=O)n(CCN(C)C)c(=O)n3c4ccccc4c(=O)c1c23,< 0.0243 µM (active),0.0182 µM (active),0.0505 µM (active),0.18 µM (active),0.133 µM (active),0.157 µM (active),0.174 µM (active),0.0197 µM (active),0.0512 µM (active),0.0614 µM (active),0.392 µM (active),0.166 µM (active),0.116 µM (active),0.0815,< 0.01 µM (active),0.0689 µM (active),< 0.0198 µM (active),< 0.0208 µM (active),0.0198 µM (active),< 0.01 µM (active)
